# Data from patent US12268676B2, “Antiviral applications of picolinic acid and its derivatives” (INDIAN INSTITUTE OF SCIENCE, priority 2021, dated 2025).
# Where “and” joins values, the source holds several entries; their conditions need not be identical. Identical values can stand only once. Like-named read-outs stand apart in the source and are kept apart here.
# How the values were obtained:
# [1] = tested on: Adenovirus 5 expressing eGFP; test: Adenovirus 5 eGFP infection of HEK cells, flow cytometry; format: cell-based, Adenovirus Serotype 5; conditions: 2 mM PA, 10 MOI, 24 hr
# [2] = tested on: Influenza A viruses (IAVs); test: microbe, parasite or virus in culture; format: cell-based, Influenza A virus
# [3] = tested on: SARS-CoV-2 (isolate hCoV-19/Hong Kong/VM20001061/2020); test: SARS-CoV-2 multi-cycle infection, viral RNA by qRT-PCR; format: cell-based; conditions: for decrease in total viral RNA copy numbers: 0.01 MOI, 48 hr (FIG. 6)
# [4] = tested on: PR8 WT virus (strain A/Puerto Rico/8/1934 H1N1); format: cell-based, Influenza A virus
# PR8 WT virus [5] = test: IAV time of addition assay (IFA for NP, western blot), Example 10; format: cell-based, Influenza A virus; conditions: for inhibition at 2000 µM: Influenza A virus
# Coxsackie virus B3 = Coxsackie virus B3 infection of HeLa cells, western blot for VP1; format: cell-based
# Method: The effects of PA against non-enveloped viruses were tested to see if PA would be effective against non-enveloped viruses as well. To this end, HeLa cells were either pre-treated for 3 hr with 2 mM PA, infected with 10 MOI Coxsackie virus B3 in presence of PA and collected 3 hr later (−3 hr); or treated during infection (T0); or virus and PA were incubated together for 1 hr and used for infection (1 hr virus+PA).
# Coxsackie virus B3 infection: To study early effects of PA, HeLa cells were pre-treated for 3 hr, infected with 10 MOI CVB3, and collected at 3 hr post infection. Alternatively, cells were infected and treated simultaneously (T0) and collected after 3 hr. Also, a mixture of virus and drug incubated for 1 hr (1 hr PA+Virus) was used for infection to test the effects of PA on virus particles. No additional drug was added here post infection. Expression levels of VP1 protein was then detected by western blot analysis.
# SARS-CoV-2 [6] = test: SARS CoV-2 infection studies in the hamster model; format: in vivo, Syrian golden hamsters; conditions: for viral RNA load mitigated by: 20 mg/kg PA therapeutic treatment
# [7] = tested on: pseudotyped SARS CoV-2 particles; test: microbe, parasite or virus in culture; format: cell-based
# Zika Luc = test: microbe, parasite or virus in culture; format: cell-based; conditions: A549, 48 h, read-out: inhibition (luciferase, normalized with untreated control)
# [8] = tested on: Para Influenza virus (HPIV Luc); test: microbe, parasite or virus in culture; format: cell-based, Human parainfluenza virus; conditions: unidentified influenza virus
# IAV PR8 WT strain = format: in vivo, BALB/c mice
# [9] = tested on: Japanese Encephalitis Virus (JEV) clinical strain P20778; test: JEV infection, western blot of flavivirus envelope protein; format: cell-based; conditions: 2 mM PA
# CVB3 = CVB3 multi-dose infection, plaque assay of supernatants; format: cell-based, Coxsackie virus B3; conditions: Vero cells, increasing concentrations of PA, 0.1 MOI, 48 hr p.i.
# Source text: Further, Vero cells were pre-treated with increasing concentrations of PA as indicated and infected with 0.1 MOI CVB3 in the presence of drugs. 48 hr p.i, cell culture supernatants were used to quantify infectious virus by plaque assay.
# [10] = tested on: Herpes Simplex virus 1 (HSV1 Luc); test: microbe, parasite or virus in culture; format: cell-based; conditions: Human alphaherpesvirus 1, A549, 48 h, read-out: inhibition in reporter virus assay
# [11] = tested on: R18 labelled PR8 WT virus; test: Influenza virus membrane fusion assay (R18 fluorescence); format: cell-based, Influenza A virus
# PR8 WT virus [12] = format: in vivo, BALB/c mice; conditions: for reduction of infectious virus titer in lung homogenates (plaque assay): 20 mg/kg PA prophylactically
# [13] = tested on: Tf647 labelled endocytic vesicles; test: Localization of transferrin labelled vesicles, confocal microscopy; format: cell-based; conditions: VeroE6, 2 mM PA, 100 MOI PR8 WT virus
# Method: Localization of transferrin labelled vesicles: Vero cells were seeded on glass coverslips in a 12 well dish to reach 70-80% confluency next day. After 3 hr treatment/not with 2 mM PA, cells were washed once with ice cold PBS and the plate was placed on ice for 10 min before incubating with OptiMEM containing PR8 wild type virus (100 MOI) and 25 μg/mL Transferrin 647 (Tf-647) for 1 hr on ice. Cells were washed twice with PBS and the plate moved to 37° C. After a 15 min chase, cells were fixed with 4% PFA, labelled with anti influenza virus HA antibody (PY102) followed by anti-mouse Alexa 488 secondary antibody to label the virus particles. Nuclei were labelled using 0.1 μg/mL DAPI. Images were acquired using a Zeiss LSM-880 Multiphoton microscope.
# The dispersion of transferrin labelled vesicles from perinuclear region to cell periphery was quantified by drawing region of interests (ROIs) up to 20 μm away from the nuclei. The fluorescence intensity of Tf-647 labelled vesicles was then measured along this distance using ImageJ/Fiji.
# SARS-CoV-2 [14] = test: SARS CoV-2 time of addition assay (IFA for spike, western blot); format: cell-based; conditions: for virus replication mitigated (spike positive cells, IFA): 10 MOI
compound,measurement,setting,value
"O=C(O)c1ccccn1 [PA, pyridine-2-carboxylic acid]","GFP positive cells, treated vs untreated",[1],Almost no differences
same,reduction in virus titer,[2],3 fold
same,inhibition at 2000 µM,"[2]; Influenza A virus, PR8, MDCK2, 48 h, read-out: maximum inhibition of infectious virus (plaque assay)",50%
same,decrease in total viral RNA copy numbers,"[3]; Calu3, 2 mM PA",~1 log10
same,reduction in viral load,"[3]; Calu3, 2 mM PA, 0.1 MOI, 48 hr (FIG. 7E)",2 log
same,decrease in total viral RNA copy numbers,"[3]; HEK ACE2, 2 mM PA",three
same,decrease in total viral RNA copy numbers,"[3]; VeroE6, 2 mM PA",three
same,decrease in NP positive cells,[4],no decrease
same,decrease in number of NP positive cells compared to virus control,[4],75% and 40%
same,"expression levels of virus NP by western blot, virus control vs PA treated",[4],no difference
same,NP positive cells (IFA),PR8 WT virus [5],No differences
same,inhibition at 2000 µM,"PR8 WT virus [5]; PR8, 1 h, read-out: inhibition (IFA for nucleoprotein and western blot)",50%
same,inhibition at 2000 µM,"PR8 WT virus [5]; PR8, A549, 3 h, read-out: inhibition (IFA, NP)",80%
same,effect on virus entry (VP1 western blot),Coxsackie virus B3; incubation of virus with drug 1 hr prior to infection,did not have any effects
same,effect on virus entry (VP1 western blot),"Coxsackie virus B3; pre-treatment 3 hr with 2 mM PA, 10 MOI",did not have any effects
same,effect on virus entry (VP1 western blot),Coxsackie virus B3; treatment at the time of infection (T0),did not have any effects
same,reduction in lung viral load,SARS-CoV-2 [6]; 20 mg/kg PA prophylactically by IP injection,~2.5 fold
same,decrease in lung viral load,"SARS-CoV-2 [6]; 20 mg/kg PA prophylactically, delivered orally",1 log
same,viral RNA load mitigated by,SARS-CoV-2 [6]; IP route,~1 log
same,viral RNA load mitigated by,SARS-CoV-2 [6]; oral route,~1 log
same,body weight and lung weight compared to mock treated animals,"SARS-CoV-2 [6]; 20 mg/kg PA, prophylactic and therapeutic groups",body weight as well as corresponding lung weight rescue
same,gross lung pathology and inflammation (images of whole lungs),SARS-CoV-2 [6]; PA treated groups vs mock treated,much of the pathology reduced
same,histopathology analysis and scoring of lung sections,SARS-CoV-2 [6]; PA treatment groups,decreased pathology
same,more effective than CM,[7],~10%
same,inhibition at 2000 µM,"[7]; Severe acute respiratory syndrome coronavirus 2, 60 h, read-out: inhibition of SARS-CoV-2 spike pseudotyped particles (firefly luciferase normalized to virus control)",90%
same,inhibition at 2000 µM,"[7]; Severe acute respiratory syndrome coronavirus 2, read-out: inhibition of pseudotyped SARS CoV-2 virus entry",> 50%
same,inhibition at 2000 µM,Zika Luc,> 90%
same,inhibition at 2000 µM,"[8]; A549, 48 h, read-out: inhibition in reporter virus assay",80 to 90%
same,inhibition at 2000 µM,"[8]; A549, read-out: inhibition of virus (luminescence, percentage of untreated virus control)",70 to 80%
same,decrease in virus titre from lung tissue (plaque assay) compared to untreated,"IAV PR8 WT strain; 20 mg PA, 72 hr post infection",Over 10 fold
same,body weight loss after IAV infection,IAV PR8 WT strain; animals infected in the presence of 100 mg PA,30%
same,body weight loss after IAV infection,"IAV PR8 WT strain; mouse, in vivo",minimal loss in body weight
same,decrease in survival rate,"IAV PR8 WT strain; mouse, in vivo",significantly reduced
same,flavivirus envelope protein by western blot,"[9]; 0.1 MOI, 48 hr post infection (FIG. 7K)",inhibition
same,decrease in the flavivirus envelope protein expression (western blot),"[9]; VeroE6 cells, 48 hr post infection, normalized against actin",0.75 fold
same,infectious virus in supernatants (plaque assay),CVB3,did not imply any differences
same,inhibition at 2000 µM,[10],80 to 90%
same,virus-entry associated increase in fluorescence intensity,[11],able to inhibit
same,reduction of infectious virus titer in lung homogenates (plaque assay),PR8 WT virus [12]; IP route,> 10 fold
same,reduction of infectious virus titer in lung homogenates (plaque assay),PR8 WT virus [12]; oral route,> 10 fold
same,survival,"PR8 WT virus [12]; IP prophylactic group, 7 days p.i.",80%
same,bodyweight rescue compared to virus control,"PR8 WT virus [12]; IP prophylactic group, day 7",> 10%
same,rescue of total animal body weight,PR8 WT virus [12]; all groups,Over 90%
same,"abrogation of lung virus titers, IP vs oral route","PR8 WT virus [12]; mouse, in vivo",more effective
same,clinical scores of histology sections,"PR8 WT virus [12]; mouse, in vivo",recovery
same,lung histology analysis,"PR8 WT virus [12]; mouse, in vivo",marked reduction in pathology
same,animal survival,"PR8 WT virus [12]; mouse, in vivo, ip",completely rescue
same,lung histology analysis,"PR8 WT virus [12]; mouse, in vivo, po",best rescue
same,distance of Tf647 labelled endocytic vesicles from the nuclei,[13],15-20 microns
same,"inhibition of virus (IFA, western blot)","SARS-CoV-2 [14]; HEK ACE2, PA added 6 hr post infection, collected 3 hr later",~50%
same,"inhibition of virus (IFA, western blot)","SARS-CoV-2 [14]; HEK ACE2, no pre-treatment, infected in presence of drug (T0)",almost no inhibition
same,"virus replication mitigated (spike positive cells, IFA)","SARS-CoV-2 [14]; HEK ACE2, pre-treated 3 hr with 2 mM PA (-3 hr)",> 80%
same,"inhibition of virus (IFA, western blot)","SARS-CoV-2 [14]; VeroE6, PA added 6 hr post infection, collected 3 hr later",no inhibition
same,"inhibition of virus (IFA, western blot)","SARS-CoV-2 [14]; VeroE6, no pre-treatment, infected in presence of drug (T0)",almost no inhibition
same,"virus replication mitigated (spike positive cells, IFA)","SARS-CoV-2 [14]; VeroE6, pre-treated 3 hr with 2 mM PA (-3 hr)",> 80%
